Consider 1 compound from US20190211020A1 (Agency for Science, Technology and Research, priority 2012, published 2019).

The subject of test [1] is eIF4E phosphorylation in K562 cells. Put plainly: Western blot of eIF4E phosphorylation in K562 cells. In kind it is cell-based. To be noted: various concentrations, 24 h. As to the method: (§1) K562 cell line was obtained from the ATCC, and grown in RPMI supplemented with 10% FCS, L-glutamine, and penicillin/streptomycin.
(§2) Exponentially growing cells were plated at 2×10^5 cells/ml, and whole cell lysate processed for western blot analysis using antibodies recognizing eIF4E, phospho-eIF4E (Cell signaling Technology),
On the technique in general: A western blot detects proteins with antibodies after separation by electrophoresis.

Test [2] deals with P116.c139 (acute T cell leukemia). As to the kind of experiment: Cell cytotoxicity assay (CellTiter-Glo), P116.c139. The test is classed as cell-based. To be noted: T-cell, cell viability. The protocol: (§3) Cancer cell lines, MV-4-11 (leukemia), P116.c139 (acute T cell leukemia) and D1.1 (acute T cell leukemia), were purchased from ATCC and cultured according to supplier's recommendations. K562 cells (myelogenous leukemia) over-expressing eIF4E, were also used for the cytotoxicity assay. For cells treated for 48 hours, 5000 cells were seeded in 70 μl of growth medium in black, flat-bottom 96-well plate. For cells treated for six days, 1000 cells were seeded in 70 μl of growth medium in black, flat-bottom 96-well plate. […] 50 μl of the diluted compounds was added to the cells and incubated at 37° C. in 5% CO2. After 48 hours or six days treatment, cell viability was determined by CellTiter-Glo Luminescent Cell Viability Assay (Promega, Madison, Wis.). 120 μl of the reagent was added to the cells and luminescence was measured using Tecan Safire Reader. Data was analysed with Graphpad Prism software and the figures represented indicate the half maximal inhibitory concentration (IC50). Error bars denote standard deviation (SD).
For orientation: In ATP-based viability assays light output follows the ATP content of the culture.

A further test has as its system Nlgn3 knock-out mice. Put plainly: Ultrasonic vocalization assay in Nlgn3 knock-out mice (autism model). The test is classed as in vivo, mouse. Particulars: 50 microgram/kg intraperitoneal, 30 h and 5 h before testing. The protocol: For biochemical analyses mice were sacrificed by CO2 inhalation, the cerebellum dissected and rapidly placed in a vibratome chamber and sectioned at 300 μm in cold oxygenated aCSF (in mM: 125 NaCl, 2.5 KCl, 1 MgCl2, 2 CaCl2, 1.25 NaH2PO4, 20 Glucose, 26 NaHCO3, 95% O2/5% CO2). Slices obtained were maintained at 33° C. in oxygenated aCSF and treated with 40 μM CGP57380 or 50 nM ETC7168 for 45 mins and tissues were subsequently snap frozen in liquid nitrogen. Tissues were lysed in 25 mM Tris-HCl, 150 mM NaCl, 1% Triton, 0.2% SDS, 5 mM EDTA, 2 mM DTT, 1 mM NaF, 1 mM Na3VO4 containing protease inhibitor cocktail. The soluble fractions were analyzed by immunoblotting with primary antibodies for 24 hrs at 4° C. followed by detection with secondary antibodies for enhanced chemoluminescent detection. […] Behavioral testing was performed using a well-accepted test for autism that consists of quantitative analysis of ultrasonic vocalizations emitted by male mice exposed to females in estrous^75. […] Prior to testing, the estrous cycle of each female mouse was assessed and only females in estrous were kept for testing. […] Subsequently a female in estrous was introduced in the arena, and ultrasonic vocalizations were recorded for 3 min using the Avisoft system (Avisoft Bioacoustics) with a frequency bandwidth of 30 kHz to 100 kHz. The number and length of ultrasonic vocalizations were quantified. […]

The subject of test [3] is K562 cells (myelogenous leukemia) over-expressing eIF4E. Put plainly: Cell cytotoxicity assay (CellTiter-Glo), K562. Particulars: for IC50: Homo sapiens, cell viability. In kind it is cell-based. As to the method:
as §3

Test [4] concerns MV-4-11, P116.c139 and D1.1 cell lines. Put plainly: Cell cytotoxicity assay, the three test cell lines taken together. To be noted: Homo sapiens, MV4-11; regardless of the treatment duration (48 hours or 6 days). The test is classed as cell-based. As to the method:
as §3

In test [5] the test system is D1.1 (acute T cell leukemia). As to the kind of experiment: Cell cytotoxicity assay (CellTiter-Glo), D1.1. The test is classed as cell-based. To be noted: T-cell, cell viability. As to the method:
as §3

Test [6] relates to eIF4E Ser209 phosphorylation in Hela cells. Put plainly: MNK cell-based assay (AlphaScreen SureFire, eIF4E Ser209 phosphorylation). Particulars: Homo sapiens; eIF4E Ser209 phosphorylation, Hela cells, 2 hours; read-out: IC50 Hela. In outline:
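Hela cells (30,000/well) exposed to test compound in serum-free medium for 2 h at 37 °C, then lysed. Phospho-Ser209 eIF4E quantified by AlphaScreen SureFire; IC50 obtained by non-linear regression of signal versus log compound concentration.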
Background: Bead proximity is the source of the signal in Alpha formats.

The target in the next test is T1, BCR-ABL (Homo sapiens, UniProt P00519).
T1 construct: host or cells: K562; the other entry of the earlier key: BCR (P11274, Breakpoint cluster region protein)
As to the kind of experiment: Western blot of CrK1 phosphorylation (BCR-ABL activity) in K562 cells. The test is classed as cell-based. As to the method: as §1, §2

“Also recorded” adds a separate entry of the source. Read-outs that look alike come from different tables or passages of the source. Some results are limits rather than exact numbers.

T1 sequence (P00519 with tags, fused parts or gaps): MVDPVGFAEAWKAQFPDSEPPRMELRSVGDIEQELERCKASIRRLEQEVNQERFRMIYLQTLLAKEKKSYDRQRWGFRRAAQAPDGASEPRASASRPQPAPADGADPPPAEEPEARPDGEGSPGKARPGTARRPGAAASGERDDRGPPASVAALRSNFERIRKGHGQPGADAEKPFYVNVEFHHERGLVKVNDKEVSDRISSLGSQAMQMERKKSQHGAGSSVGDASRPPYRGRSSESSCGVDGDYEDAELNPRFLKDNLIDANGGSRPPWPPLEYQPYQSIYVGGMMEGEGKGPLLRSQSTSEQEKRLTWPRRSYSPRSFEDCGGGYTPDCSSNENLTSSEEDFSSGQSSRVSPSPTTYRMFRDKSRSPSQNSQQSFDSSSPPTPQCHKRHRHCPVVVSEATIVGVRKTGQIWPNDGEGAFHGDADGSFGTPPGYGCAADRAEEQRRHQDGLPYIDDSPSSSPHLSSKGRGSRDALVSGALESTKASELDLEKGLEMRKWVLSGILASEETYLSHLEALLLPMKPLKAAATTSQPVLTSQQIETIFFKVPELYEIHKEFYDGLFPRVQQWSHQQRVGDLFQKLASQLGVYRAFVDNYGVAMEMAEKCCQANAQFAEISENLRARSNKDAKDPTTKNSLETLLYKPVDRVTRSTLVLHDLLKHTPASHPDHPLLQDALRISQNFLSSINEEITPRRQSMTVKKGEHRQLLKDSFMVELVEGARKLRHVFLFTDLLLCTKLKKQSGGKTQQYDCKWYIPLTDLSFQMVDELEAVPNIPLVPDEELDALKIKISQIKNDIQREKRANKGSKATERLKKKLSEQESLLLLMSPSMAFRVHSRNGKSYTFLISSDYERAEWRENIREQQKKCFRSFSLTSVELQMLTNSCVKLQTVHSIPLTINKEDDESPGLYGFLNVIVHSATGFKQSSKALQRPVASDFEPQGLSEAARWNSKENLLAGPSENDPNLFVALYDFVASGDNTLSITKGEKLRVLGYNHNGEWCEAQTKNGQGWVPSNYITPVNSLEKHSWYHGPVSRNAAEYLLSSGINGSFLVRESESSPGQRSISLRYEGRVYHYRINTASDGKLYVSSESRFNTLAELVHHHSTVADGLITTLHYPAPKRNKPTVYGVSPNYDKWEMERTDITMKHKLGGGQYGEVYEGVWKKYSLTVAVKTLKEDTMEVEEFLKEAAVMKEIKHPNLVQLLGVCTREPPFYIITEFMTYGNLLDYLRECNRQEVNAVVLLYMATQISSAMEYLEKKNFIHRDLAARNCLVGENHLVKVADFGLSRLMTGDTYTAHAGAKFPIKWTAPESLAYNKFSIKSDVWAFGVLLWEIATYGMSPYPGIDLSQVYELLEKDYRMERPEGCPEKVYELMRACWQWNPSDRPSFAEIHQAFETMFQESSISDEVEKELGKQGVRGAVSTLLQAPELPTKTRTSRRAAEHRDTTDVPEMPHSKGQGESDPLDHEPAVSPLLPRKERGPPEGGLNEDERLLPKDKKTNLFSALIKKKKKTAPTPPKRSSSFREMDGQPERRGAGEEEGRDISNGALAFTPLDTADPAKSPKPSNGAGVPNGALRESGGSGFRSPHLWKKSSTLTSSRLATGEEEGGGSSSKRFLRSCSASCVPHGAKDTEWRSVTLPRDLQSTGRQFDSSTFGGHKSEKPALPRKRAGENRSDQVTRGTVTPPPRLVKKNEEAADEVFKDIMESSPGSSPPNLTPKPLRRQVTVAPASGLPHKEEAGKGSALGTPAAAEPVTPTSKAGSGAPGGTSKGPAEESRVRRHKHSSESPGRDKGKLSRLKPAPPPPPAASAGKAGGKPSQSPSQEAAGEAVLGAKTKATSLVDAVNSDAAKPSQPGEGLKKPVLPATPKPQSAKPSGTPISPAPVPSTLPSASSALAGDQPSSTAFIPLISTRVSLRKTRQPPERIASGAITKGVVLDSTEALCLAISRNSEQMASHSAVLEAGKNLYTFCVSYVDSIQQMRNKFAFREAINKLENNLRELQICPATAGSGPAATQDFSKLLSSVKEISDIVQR

As usually defined, the IC50 is the concentration needed to halve the response being measured. Consider `N#Cc1ccc(-c2cnc3ccc(-c4ccc(C(=O)N5CCOCC5)cc4)nn23)cc1` [Example 62, 4-(6-(4-(morpholine-4-carbonyl)phenyl)imidazo[1,2-b]pyridazin-3-yl)benzonitrile], for which, in test [1], the “eIF4E phosphorylation in K562 (BC-CML cell line), Western blot” value is given as “prevent eIF4E phosphorylation; also recorded: decrease in eIF4E phosphorylation”. In addition, the 50% inhibitory concentration (IC50) in test [2] (144 h, 6 days, read-out: IC50 after 6 days of treatment, P116.c139) is 300 nM; in test [2] (48 hours, read-out: IC50 after 48 hours of treatment, P116.c139) it was 800 nM; in test [3] (K562, 144 h, 6 days, read-out: IC50 after 6 days of treatment, K562) it was 3100 nM; in test [3] (K562, 48 hours, read-out: IC50 after 48 hours of treatment, K562), 7500 nM; in test [4], at most 2000 nM; in test [5] (144 h, 6 days, read-out: IC50 after 6 days of treatment, D1.1), 1700 nM. Besides, the IC50 in test [5] (48 hours, read-out: IC50 after 48 hours of treatment, D1.1) is 1600 nM; in test [6], under 1000 nM. For the same compound, the “ultrasonic vocalizations of Nlgn3 knock-out male mice (autism-related behavior)” value in the test on Nlgn3 knock-out mice is listed as “improves autism-relevant behavior”; in the test with Nlgn3 knock-out mice (listed as ETC7168) it was “robust elevation of ultrasonic vocalizations”. Besides, the “change of IC50 when treatment duration was extended from 48 hours to 6 days, K562” value in test [3] (K562 cells over-expressing eIF4E) is given as “reduced by more than half”. Besides, the “BCR-ABL activity (phosphorylation of CrK1) in K562 cells” value at BCR-ABL is recorded as “decrease in BCR-ABL activity”.
